Data: paper PMC4488699, “Proteasome as a Molecular Target of Microcystin-LR” (Toxins, 2015)
Read-outs that look alike come from different tables or passages of the source. Numbered stars: 1 amine (or outer) side, 2 acyl side, 3 side chain; on linkers, the order of the positions; unused ones are H or OH. Bridge positions count the residues as written; N and C are the ends. Square brackets hold non-standard residues; d marks the D form. Peptide text beside a SMILES is read from it. * marks the point of attachment. Adda = CO[C@@H](Cc1ccccc1)[C@@H](C)/C=C(C)/C=C/[C@H](N[*:1])[C@H](C)C(=O)[*:2]; dAsp(3S-Me) = C[C@H](C(=O)[*:3])[C@@H](N[*:1])C(=O)[*:2]; d(γGlu) = O=C(O)[C@@H](CCC(=O)[*:2])N[*:1]; Cbz = O=C(OCc1ccccc1)*; NMeDha = C=C(NC)C(=O)O

Key:
[1] = system: proteasome CT activity in PC-3-GFP^u whole cell extracts; assay type: cell-based
[2] = system: proteasome TL activity in PC-3-GFP^u whole cell extracts; assay type: cell-based
[3] = system: proteasome PGPH activity in PC-3-GFP^u whole cell extracts; assay type: cell-based
animal cells = details: cited from earlier work
[4] = system: serine/threonine protein phosphatases (PPs); details: cited from earlier work
[5] = system: proteasome TL activity in the liver of Gobiocypris rarus; details: in vivo
PC-3-GFP^u cells = assay type: cell-based
protease = details: cited from earlier work

C=C1C(=O)N[C@H](C)C(=O)N[C@@H](CC(C)C)C(=O)N[C@@H](C(=O)O)[C@H](C)C(=O)N[C@@H](CCCNC(=N)N)C(=O)N[C@@H](/C=C/C(C)=C/[C@H](C)[C@H](Cc2ccccc2)OC)[C@H](C)C(=O)N[C@@H](C(=O)O)CCC(=O)N1C [MC-LR, microcystin-LR] (R[Adda][d(γGlu)][NMeDha][dA]L[dAsp(3S-Me)]-OH; lactam N-7)
effect on cellular proteasome CT activity [1]: did not evidently change | inhibition of cellular proteasome TL activity [2]: 34% | effect on cellular proteasome PGPH activity [3]: slightly inhibited | induction of oxidative stress (animal cells): induce oxidative stress in animal cells | inhibition of serine/threonine protein phosphatases [4]: inhibition to serine/threonine protein phosphatases | dose dependence of inhibition of proteasome TL activity in the liver [5]: dose-dependently inhibited | inhibition rate of proteasome TL activity in the liver ([5]; pH 7.4): 43% | GFP degradation / accumulation of ubiquitinated GFP (PC-3-GFP^u cells): Ubiquitinated GFP also accumulated | degradation by protease (protease): cannot be degraded by protease

CC(C)C[C@@H](C=O)NC(=O)[C@H](CC(C)C)NC(=O)[C@H](CC(C)C)NC(=O)OCc1ccccc1 [MG-132] (Cbz-Leu-Leu-Leu-aldehyde)
GFP degradation / accumulation of ubiquitinated GFP (PC-3-GFP^u cells; MG-132 1 μM (positive control), 24 h, vs DMSO, fluorescence microscopy): GFP degradation was retarded and ubiquitinated GFP accumulated
